Reference: US9498035B2, “Silicone hydrogel contact lenses for sustained release of beneficial polymers” (CooperVision International Holding Company, LP, priority 2012, dated 2016)

Assays:
[1] = Release of αPLL of varying molecular weight from Formulation C lenses; type: physicochemical; conditions: for release between the 6 hour and 24 hour time points (in words): hydrobromide
Procedure: Lenses of Formulations B-E prepared according to Example 1 were used in this study. The lenses were immersed in 1.2 ml of 500 ppm εPLL in PBS for 48 hours as described in Example 3. Excess solution was removed from each lens by gently blotting with an absorbent tissue. Each lens was immersed in 1 ml of ISO 10344 standard saline solution (0.83% sodium chloride, 0.0467% sodium phosphate monobasic, and 0.4486% sodium phosphate dibasic) in a well of a 12-well plate and covered. The plates were shaken at 100 rpm at 37±2° C. At 2, 4, 6, 8, 12, and 24 hours, the solution was removed from each well and replaced with 1 ml of fresh ISO 10344 standard saline solution. HPLC was used to determine the amount of εPLL released from each lens.
Polymer release was tested substantially as described in Example 4, except that the time points tested were at 2, 6, and 24 hr.

[2] = Uptake of αPLL of varying molecular weight by Formulation C lenses; type: physicochemical; conditions: 1.8 ml 500 ppm αPLL in PBS, autoclave and overnight storage at room temperature, hydrobromide
Procedure: Solutions of 500 ppm poly-L-lysine hydrobromide (CAS No. 25988-63-0) (αPLL) with varying molecular weight ranges were prepared in PBS. Lenses of Formulation C prepared as described in Example 1 were packaged with 1.8 ml of each solution and autoclaved. After autoclave and overnight storage at room temperature uptake of αPLL was measured.

Substance	release of polymer detected (in words) ([1]; time points 2, 6, and 24 hr)	uptake [2] [μg/lens]	duration of sustained release (in words) [1]	release between the 6 hour and 24 hour time points (in words) [1]
poly-L-lysine hydrobromide [Formulation 70K-150K]	No significant release	185	–	–
poly-L-lysine hydrobromide [Formulation 30K-70K]	–	299	–	–
poly-L-lysine hydrobromide [Formulation 500-2K]	–	122	sustained for at least two hours	no significant release
poly-L-lysine hydrobromide [Formulation 15K-30K]	–	414	–	significant release
poly-L-lysine hydrobromide [Formulation 4K-15K]	–	400	–	significant release
poly-L-lysine hydrobromide [Formulation 1K-5K]	–	142	sustained for at least two hours	no significant release
